# Results published in patent US9447083B2, “N-acylhydrazone derivatives for selective T cell inhibitor and anti-lymphoid malignancy drug” (CHONG KUN DANG PHARMACEUTICAL CORP., priority 2012, dated 2016).
# System: Jurkat T cells
# Experiment: Pro-apoptotic activity on Jurkat T cells (FITC-Annexin V / 7-AAD flow cytometry)
# Format: cell-based
# Settings: Homo sapiens, 72 hours, cells stained with FITC-Annexin V and 7-AAD among total cells, read-out: Cell Apoptosis Effect to Jurkat T Cell (% in 5 μM)
# Experimental: In order to investigate the effects of the prepared compounds, the apoptosis-inducing effects of the compounds on human T cell acute lymphoblastic leukemia cell line, Jurkat T cells, were evaluated in the following manner.
# Jurkat T cells cultured in RPMI medium containing 10% fetal bovine serum (FBS) were collected and stained with trypan blue (Sigma). […] Then, the cells were centrifuged at 1200 rpm at room temperature for 5 minutes and re-suspended in 10% FBS-containing RPMI medium at a concentration of 1.5×10^5 cells/mL. 200 μL of the cell suspension was dispensed into each well of a flat bottom 96-well plate (Costar). Then, the cells were treated with 10 μL of the diluted compounds in RPMI medium at final concentrations of […] or 5 μM, and incubated in a 5% CO2 incubator at 37° C. for 72 hours. In a vehicle control group, the cells were treated with 10 μL of RPMI medium containing 1% of dimetylsulfoxide (DMSO, Sigma). The incubated cells were harvested, put into 5-mL FACS tubes (BD Falcon), washed with 1 mL of phosphate buffered saline (PBS), and then re-suspended in 0.1 mL of binding buffer (10 mM Hepes-NaOH, pH 7.4, 140 mM NaCl, […] CaCl2). The suspended cells were stained with fluorescein isothiocyanate (FITC)-Annexin V (BD Biosciences) and 7-amino-actinomycin D (7-AAD, e-Biosciences) at room temperature for 15 minutes. The stained cells were suspended in 0.3 mL of binding buffer and analyzed by a flow cytometer. Apoptosis was determined by the ratio (%) of cells stained with FITC-Annexin V and 7-AAD among the total cells (see Tables 10 and 11).
row,Compound,cytotoxicity at 5 µM
1,Cc1cc(C)c(OCC(=O)N/N=C/c2ccc3snnc3c2)c(C)c1 [Compound 206],100%
2,Cc1cc(C)c(OCC(=O)N/N=C/c2cccc3[nH]cc(CN4CCC(C)CC4)c23)c(C)c1 [Compound 211],100%
3,"Cc1cc(C)c(OCC(=O)N/N=C/c2ccc3cc[nH]c3c2)c(-c2ccncc2)c1 [Compound 217, (E)-N′-((1H-indol-6-yl)methylene)-2-(2,4-dimethyl-6-(pyridin-4-yl)phenoxy)acetohydrazide]",100%
4,"Cc1cc(C)c(OCC(=O)N/N=C/c2ccc3cc[nH]c3c2)c(-c2ccoc2)c1 [Compound 218, (E)-N′-((1H-indol-6-yl)methylene)-2-(2-(furan-3-yl)-4,6-dimethylphenoxy)acetohydrazide]",100%
5,"Cc1cc(CO)cc(C)c1OCC(=O)N/N=C/c1cccc2[nH]ccc12 [Compound 227, (E)-N′-((1H-indol-4-yl)methylene)-2-(4-(hydroxymethyl)-2,6-dimethylphenoxy)acetohydrazide]",90%
6,"Cc1cc(CO)cc(C)c1OCC(=O)N/N=C/c1ccc2cc[nH]c2c1 [Compound 228, (E)-N′-((1H-indol-6-yl)methylene)-2-(4-(hydroxymethyl)-2,6-dimethylphenoxy)acetohydrazide]",100%
7,"Cc1cc(N)cc(C)c1OCC(=O)N/N=C/c1cccc2[nH]ccc12 [Compound 232, (E)-N′-((1H-indol-4-yl)methylene)-2-(4-amino-2,6-dimethylphenoxy)acetohydrazide]",100%
8,"Cc1cc(C)c(OCC(=O)N(CO)/N=C/c2ccc3cc[nH]c3c2)c(C)c1 [Compound 233, (E)-N′-((1H-indol-6-yl)methylene)-N-(hydroxymethyl)-2-(mesityloxy)acetohydrazide]",100%
9,"Cc1cc(C)c(OCC(=O)N(COC(=O)CN(C)C)/N=C/c2ccc3cc[nH]c3c2)c(C)c1 [Compound 236, (E)-(2-((1H-indol-6-yl)methylene)-1-(2-(mesityloxy)acetyl)hydrazinyl)methyl 2-(dimethylamino)acetate]",100%
10,"Cc1cc(C#N)cc(C)c1OCC(=O)N/N=C/c1ccc2cc[nH]c2c1 [Compound 237, (E)-N′-((1H-indol-6-yl)methylene)-2-(4-cyano-2,6-dimethylphenoxy)acetohydrazide]",100%
11,"Cc1cc(C)c(OCC(=O)N(COC(=O)CN(C)C)/N=C/c2cccc3[nH]ccc23)c(C)c1 [Compound 238, (E)-(2-((1H-indol-4-yl)methylene)-1-(2-(mesityloxy)acetyl)hydrazinyl)methyl 2-(dimethylamino)acetate]",100%
12,Cc1cc(C(N)=O)cc(C)c1OCC(=O)N/N=C/c1ccc2cc[nH]c2c1 [Compound 239],100%
13,"CC(=O)N(/N=C/c1ccc2cc[nH]c2c1)C(=O)COc1c(C)cc(C)cc1C [Compound 243, (E)-N′-((1H-indol-6-yl)methylene)-N-acetyl-2-(mesityloxy)acetohydrazide]",100%
14,"Cc1cc(C)c(OCC(=O)N(CO)/N=C/c2cccc3[nH]ccc23)c(C)c1 [Compound 244, (E)-N′-((1H-indol-4-yl)methylene)-N-(hydroxymethyl)-2-(mesityloxy)acetohydrazide]",100%
15,"Cc1cc(C)c(OCC(=O)N(COC(=O)c2ccc(CN3CCOCC3)cc2)/N=C/c2cccc3[nH]ccc23)c(C)c1 [Compound 245, (E)-(2-((1H-indol-4-yl)methylene)-1-(2-(mesityloxy)acetyl)hydrazinyl)methyl 4-(morpholinomethyl)benzoate]",100%
16,"CC(=O)OCN(/N=C/c1ccc2cc[nH]c2c1)C(=O)COc1c(C)cc(C)cc1C [Compound 252, (E)-(2-((1H-indol-6-yl)methylene)-1-(2-(mesityloxy)acetyl)hydrazinyl)methyl acetate]",100%
17,Cc1cc(C)c(OCC(=O)N/N=C/c2ccc3c(Br)c[nH]c3c2)c(C)c1 [Compound 256],100%
18,"Cc1cccc(C)c1OCC(=O)N/N=C/c1ccc2cc[nH]c2c1 [Compound 258, (E)-N′-((1H-indol-6-yl)methylene)-2-(2,6-dimethylphenoxy)acetohydrazide]",100%

# Same assay, conditions: Homo sapiens, 72 hours, cells stained with FITC-Annexin V and 7-AAD among total cells, read-out: Jurkat T Cell Apoptosis (% in 5 μM)
row,Compound,cytotoxicity at 5 µM
1,"Cc1cc(C)c(OCC(=O)N/N=C/c2cccc3[nH]ccc23)c(Br)c1 [Compound 259, (E)-N′-((1H-indol-4-yl)methylene)-2-(2-bromo-4,6-dimethylphenoxy)acetohydrazide]",100%
2,"Cc1cc(C)c(OCC(=O)N/N=C/c2ccc3cc[nH]c3c2)c(Br)c1 [Compound 260, (E)-N′-((1H-indol-6-yl)methylene)-2-(2-bromo-4,6-dimethylphenoxy)acetohydrazide]",100%
3,"Cc1cc(C)c(OCC(=O)N(COC(=O)c2ccc(CN3CCOCC3)cc2)/N=C/c2ccc3cc[nH]c3c2)c(C)c1 [Compound 272, (E)-(2-((1H-indol-6-yl)methylene)-1-(2-(mesityloxy)acetyl)hydrazinyl)methyl 4-(morpholinomethyl)benzoate]",100%
4,Cc1ccccc1OCC(=O)N/N=C/c1ccc2cc[nH]c2c1 [Compound 279],100%
5,"Cc1cc(C)c(OCC(=O)N/N=C/c2cccc3c2ccn3S(=O)(=O)c2ccccc2)c(C)c1 [Compound 280, (E)-2-(mesityloxy)-N′-((1-(phenylsulfonyl)-1H-indol-4-yl)methylene)acetohydrazide]",100%
6,"Cc1cc(OCC(=O)N/N=C/c2cccc3[nH]ccc23)cc(C)n1 [Compound 286, (E)-N′-((1H-indol-4-yl)methylene)-2-(2,6-dimethylpyridin-4-yloxy)acetohydrazide]",100%
7,Cc1cc(OCC(=O)N/N=C/c2ccc3cc[nH]c3c2)cc(C)n1 [Compound 288],90%
8,Cc1ncccc1OCC(=O)N(CO)/N=C/c1cccc2[nH]ccc12 [Compound 289],100%
9,"Cc1cc(F)ccc1OCC(=O)N/N=C/c1ccc2cc[nH]c2c1 [Compound 291, (E)-N′-((1H-indol-6-yl)methylene)-2-(4-fluoro-2-methylphenoxy)acetohydrazide]",100%
10,"CCc1nc(C)ccc1OCC(=O)N/N=C/c1ccc2cc[nH]c2c1 [Compound 293, (E)-N′-((1H-indol-6-yl)methylene)-2-(2-ethyl-6-methylpyridin-3-yloxy)acetohydrazide]",100%
11,"Cc1cc(OCC(=O)N/N=C/c2cccc3[nH]ccc23)nc(C)n1 [Compound 301, (E)-N′-((1H-indol-4-yl)methylene)-2-(2,6-dimethylpyrimidin-4-yloxy)acetohydrazide]",100%
12,"COc1ccc(OCC(=O)N/N=C/c2cccc3[nH]ccc23)c(C(C)(C)C)c1 [Compound 302, (E)-N′-((1H-indol-4-yl)methylene)-2-(2-tert-butyl-4-methoxyphenoxy)acetohydrazide]",100%
13,COc1ccc(OCC(=O)N/N=C/c2ccc3cc[nH]c3c2)c(C(C)(C)C)c1 [Compound 303],100%
14,"Cc1ncccc1OCC(=O)N/N=C/c1ccc2cc[nH]c2c1 [Compound 304, (E)-N′-((1H-indol-6-yl)methylene)-2-((2-methylpyridin-3-yl)oxy)acetohydrazide]",90%
15,"O=C(COc1cccnc1-c1ccoc1)N/N=C/c1ccc2cc[nH]c2c1 [Compound 310, (E)-N′-((1H-indol-6-yl)methylene)-2-(2-(furan-3-yl)pyridin-3-yloxy)acetohydrazide]",100%
16,"Cc1cccc(C2CCOC2)c1OCC(=O)N/N=C/c1ccc2cc[nH]c2c1 (stereo not drawn) [Compound 311, (E)-N′-((1H-indol-6-yl)methylene)-2-(2-methyl-6-(tetrahydrofuran-3-yl)phenoxy)acetohydrazide]",100%
17,"Cc1cccc(C2CCOC2)c1OCC(=O)N/N=C/c1cccc2[nH]ccc12 (stereo not drawn) [Compound 312, (E)-N′-((1H-indol-4-yl)methylene)-2-(2-methyl-6-(tetrahydrofuran-3-yl)phenoxy)acetohydrazide]",100%
18,"Cc1cccc(-c2ccoc2)c1OCC(=O)N/N=C/c1ccc2cc[nH]c2c1 [Compound 313, (E)-N′-((1H-indol-6-yl)methylene)-2-(2-(furan-3-yl)-6-methylphenoxy)acetohydrazide]",100%
19,"Cc1cccc(-c2ccoc2)c1OCC(=O)N/N=C/c1cccc2[nH]ccc12 [Compound 314, (E)-N′-((1H-indol-4-yl)methylene)-2-(2-(furan-3-yl)-6-methylphenoxy)acetohydrazide]",100%
20,"Cc1cc(C)c(OCC(=O)N/N=C/c2cccc3[nH]ccc23)c(-c2ccco2)c1 [Compound 317, (E)-N′-((1H-indol-4-yl)methylene)-2-(2-(furan-2-yl)-4,6-dimethylphenoxy)acetohydrazide]",100%
21,Cc1cc(C)c(OCC(=O)N/N=C/c2ccc3cc[nH]c3c2)c(-c2ccco2)c1 [Compound 318],100%
